Where two headings read alike, the source gives them in different places.
Key:
[1] = tested on: human PBMC; assay: Cytokine production (IL-1β, IL-6) at 24 hr by human PBMC incubated with 1 ng/mL LPS; assay type: cell-based; conditions: free steroid payloads, serial dilutions, 1 ng/mL LPS, 24 hr
Protocol: FIG. 51: INX-SM-3, INX-SM-4, and INX-SM-1 inhibit IL-1β (left) and IL-6 (right) production. Cytokine levels were measured at 24 hr for human PBMCS incubated with 1 ng/mL LPS and serial dilutions (1000-1 nM) of steroid payloads, with the no treatment control plotted on the log-scale x-axis at <1 nM; n=1 donor, standard deviation plotted from technical duplicates.
FIG. 52: INX-SM-1, INX-SM-3, INX-SM-4 and INX-SM-6 inhibit IL-1β production. Cytokine levels measured at 24 hr for human PBMCS incubated with 1 ng/ml LPS and serial dilutions (1000-1 nM) of steroid payloads, with the no treatment control plotted on the log-scale x-axis at <1 nM; n=1 donor, standard deviation plotted from technical duplicates.
FIG. 53: INX-SM-9, INX-SM-31 and INX-SM-35 inhibit IL-1β (top) and IL-6 (bottom) production. Cytokine levels measured at 24 hr for human PBMCS incubated with 1 ng/mL LPS and serial dilutions (1000-0.2 nM) of steroid payloads, with the no treatment control plotted on the log-scale x-axis at <0.2 nM; n=2 donors-representative donor shown. Standard deviation plotted from technical duplicates.
FIG. 54: INX-SM-32 inhibits IL-1β (top) and IL-6 (bottom) production. Cytokine levels measured at 24 hr for human PBMCS incubated with 1 ng/mL LPS and serial dilutions (500-1 nM) of steroid payloads, with the no treatment control plotted on the log-scale x-axis at <1 nM; n=2. Representative donor shown. Standard deviation plotted from technical duplicates.
Cytokine levels measured at 24 hr for human PBMCS incubated with 1 ng/ml LPS and serial dilutions (1000-0.5 nM) of steroid payloads, with the no treatment control plotted on the log-scale x-axis at <0.5 nM; n=1 donor, standard deviation plotted from technical duplicates.
FIG. 56: INX-SM-2 and INX-SM-7 show inhibition in IL-1β. Average Cytokine levels measured at 24 hr for human PBMCS incubated with 1 ng/ml LPS and serial dilutions (1000-0.16 nM) of steroid payloads, with the no treatment control plotted on the log-scale x-axis at <0.16 nM; n=1, standard deviation plotted from technical duplicates. […]
Average cytokine levels measured at 24 hr for human PBMC incubated with 1 ng/ml LPS and serial dilutions (100-0.032 nM) of glucocorticoid payloads; n=1, mean of technical duplicates.
Average cytokine levels measured at 24 hr for human PBMC incubated with 1 ng/mL LPS and serial dilutions (1000-0.32 nM) of glucocorticoid payloads; n=1, mean of technical duplicates.
Cytokine levels measured at 24 hr for human PBMC incubated with 1 ng/mL LPS and serial dilutions (1000-0.5 nM) of steroid payloads, with the no treatment control plotted on the log-scale x-axis at <0.5 nM; n=1 donor, mean of technical duplicates plotted.
Average cytokine levels for A. hull-1β B. huIL-6 measured at 24 hr for human PBMC incubated with 1 ng/mL LPS and serial dilutions (1000-0.16 nM) of conjugated steroid linker payloads, with the no treatment control plotted on the log-scale x-axis at <0.16 nM; n=1, standard deviation plotted from technical duplicates. Values above the ULOQ (12,500 pg/mL for IL-1b and 150,000 pg/mL for IL-6) were plotted as the extrapolated value.
Average cytokine levels for IL-1β measured at 24 hr for human PBMC incubated with 1 ng/mL LPS and serial dilutions (1000-0.16 nM) of conjugated steroid linker payloads, with the no treatment control plotted on the log-scale x-axis at <0.16 nM; n=1, mean plotted of technical duplicates
Average cytokine levels for IL-1β measured at 24 hr for human PBMC incubated with 1 ng/mL LPS and serial dilutions (1000-0.16 nM) of conjugated steroid linker payloads, with the no treatment control plotted on the log-scale x-axis at <0.16 nM; n=1, mean plotted of technical duplicates.
FIG. 66: Analogs of INX V are potent relative to INX231J. […]

[2] = tested on: LPS stimulated human PBMCs; assay: LPS stimulated human PBMC, IL-1β and IL-6 ELISA; assay type: cell-based
Protocol: The potency of novel steroids was assessed in a model of LPS stimulated human peripheral blood mononuclear cells (PBMCS). Stimulated PBMCs in this assay produce multiple pro-inflammatory cytokines1.
In all the following experiments, human PBMC, isolated from 1-2 healthy donors per study, were stimulated with LPS to induce cytokine production.
LPS was added either immediately after addition of free payload, or in the case of conjugates, four hours after addition of the conjugate.
Cells were plated in flat bottom 96 well plates at a final concentration of 150,000 cells/well, with technical duplicates for each condition.
Test agents were serially diluted in the assay media and added to a final concentration of 1,000 nM-1 nM or 0.2 nM depending on the assay or as a no treatment control.
LPS stimulation was added to a final concentration of 1 ng/ml.
Human IL-1β and IL-6 ELISA kits were used on supernatants according to vendor protocols. All graphs were prepared with GraphPad (Prism).

[3] = Experiment 12: free payloads 1000-0.15 nM

SMILES	inhibition of IL-1β production [1]	inhibition of IL-6 production [1]	other results
C[C@]12C=CC(=O)C=C1CC[C@@H]1[C@@H]2[C@@H](O)C[C@@]2(C)[C@H]1C[C@H]1CN(Cc3ccc(CC45CC(N)(C4)C5)cc3)C[C@]12C(=O)CO [INX-SM-17, (6aR,6bS,7S,8aS,8bS,11aR,12aS,12bS)-10-(4-((3-aminobicyclo[1.1.1]pentan-1-yl)methyl)benzyl)-7-hydroxy-8b-(2-hydroxyacetyl)-6a,8a-dimethyl-1,6a,6b,7,8,8a,8b,9,10,11,11a,12,12a,12b-tetradecahydronaphtho[2′,1′:4,5]indeno[1,2-c]pyrrol-4 (2H)-one 2,2,2-trifluoroacetate]	weakly inhibits	–	inhibition of IL-1β and IL-6 [2, 3]: only weakly inhibit IL-1β
C[C@]12C=CC(=O)C=C1CC[C@@H]1[C@@H]2[C@@H](O)C[C@@]2(C)[C@H]1C[C@H]1O[C@@H](c3ccc(Cc4cnc(N)s4)cc3)O[C@]12C(=O)CO [INX-SM-1, (6aR,6bS,7S,8aS,8bS,10R,11aR,12aS,12bS)-10-(4-((2-aminothiazol-5-yl)methyl)phenyl)-7-hydroxy-8b-(2-hydroxyacetyl)-6a,8a-dimethyl-1,2,6a,6b,7,8,8a,8b,11a,12,12a,12b-dodecahydro-4H-naphtho[2′,1′:4,5]indeno[1,2-d][1,3]dioxol-4-one]	inhibit	inhibit	inhibition of IL-1β and IL-6 production ([2]; Experiment 1: free payload 1000-1 nM, 1 ng/ml LPS, 24 hr, n=1 donor): inhibit both IL-1β and IL-6 production; inhibition of IL-1β production ([2]; Experiment 2: free payload 1000-1 nM, 24 hr, n=1 donor): show inhibition in IL-1β production
C[C@]12C=CC(=O)C=C1CC[C@@H]1[C@@H]2[C@@H](O)C[C@@]2(C)[C@H]1C[C@H]1O[C@@H](c3ccc(CC4CC(N)C45CCC5)cc3)O[C@]12C(=O)CO (stereo partly drawn) [INX-SM-45, (6aR,6bS,7S,8aS,8bS,10R,11aR,12aS,12bS)-10-(4-((3-aminospiro[3.3]heptan-1-yl)methyl)phenyl)-7-hydroxy-8b-(2-hydroxyacetyl)-6a,8a-dimethyl-1,2,6a,6b,7,8,8a,8b,11a,12,12a,12b-dodecahydro-4H-naphtho[2′,1′:4,5]indeno[1,2-d][1,3]dioxol-4-one 2,2,2-trifluoroacetate]	more modest inhibition	–	inhibition of IL-1β production ([2]; Experiment 8: free payload 1000-0.5 nM): more modest inhibition of cytokine production
C[C@]12C=CC(=O)C=C1CC[C@@H]1[C@@H]2[C@@H](O)C[C@@]2(C)[C@H]1C[C@H]1O[C@@H](c3ccc(CC4(N)COC4)cc3)O[C@]12C(=O)CO [INX-SM-33, (6aR,6bS,7S,8aS,8bS,10R,11aR,12aS,12bS)-10-(4-((3-aminooxetan-3-yl)methyl)phenyl)-7-hydroxy-8b-(2-hydroxyacetyl)-6a,8a-dimethyl-1,2,6a,6b,7,8,8a,8b,11a,12,12a,12b-dodeca hydro-4H-naphtho[2′,1′:4,5]indeno[1,2-d][1,3]dioxol-4-one]	modest inhibition	modest inhibition	potency of free payloads (conclusions) [2]: lowest potency among the R stereoisomers of the series; inhibition of IL-1β and IL-6 production ([2]; Experiment 5: free payload 1000-0.5 nM, 24 hr): modest inhibition of cytokine production
C[C@]12C=CC(=O)C=C1CC[C@@H]1[C@@H]2[C@@H](O)C[C@@]2(C)[C@H]1C[C@H]1O[C@@H](c3ccc(OC4CC5(CC(N)C5)C4)cc3F)O[C@]12C(=O)CO (stereo partly drawn) [INX-SM-44, (6aR,6bS,7S,8aS,8bS,10R,11aR,12aS,12bS)-10-(4-((6-aminospiro[3.3]heptan-2-yl)oxy)-2-fluorophenyl)-7-hydroxy-8b-(2-hydroxyacetyl)-6a,8a-dimethyl-1,2,6a,6b,7,8,8a,8b,11a,12,12a,12b-dodecahydro-4H-naphtho[2′,1′:4,5]indeno[1,2-d][1,3]dioxol-4-one]	moderate inhibition	–	inhibition of huIL1-β ([2]; Experiment 7: free payload, INX-SM-43 100-0.032 nM, INX-SM-44 1000-0.32 nM): moderate inhibition of huIL1-β
C[C@]12C=CC(=O)C=C1CC[C@@H]1[C@@H]2[C@@H](O)C[C@@]2(C)[C@H]1C[C@H]1O[C@@H](c3ccc(CC4CC5(CC(N)C5)C4)cc3)O[C@]12C(=O)CO (stereo partly drawn) [INX-SM-32, (6aR,6bS,7S,8aS,8bS,10R,11aR,12aS,12bS)-10-(4-((6-aminospiro[3.3]heptan-2-yl)methyl)phenyl)-7-hydroxy-8b-(2-hydroxyacetyl)-6a,8a-dimethyl-1,2,6a,6b,7,8,8a,8b,11a,12,12a,12b-dodecahydro-4H-naphtho[2′,1′:4,5]indeno[1,2-d][1,3]dioxol-4-one]	inhibits	inhibits	inhibition of IL-1β and IL-6 production ([2]; Experiment 4: free payload 500-1 nM, 24 hr, n=2): dose dependent inhibition in IL-1β and IL-6 production
C[C@]12C=CC(=O)C=C1CC[C@@H]1[C@@H]2[C@@H](O)C[C@@]2(C)[C@H]1C[C@H]1O[C@@H](c3ccc(CC4CC5(CNC5)C4)cc3)O[C@]12C(=O)CO [INX-SM-47, (6aR,6bS,7S,8aS,8bS,10R,11aR,12aS,12bS)-10-(4-((2-azaspiro[3.3]heptan-6-yl)methyl)phenyl)-7-hydroxy-8b-(2-hydroxyacetyl)-6a,8a-dimethyl-1,2,6a,6b,7,8,8a,8b,11a,12,12a,12b-dodecahydro-4H-naphtho[2′,1′:4,5]indeno[1,2-d][1,3]dioxol-4-one 2,2,2-trifluoroacetate]	weakly inhibit	weakly inhibit	inhibition of IL-1β and IL-6 [2]: weakly inhibit IL-1β and IL-6
C[C@]12C=CC(=O)C=C1CC[C@@H]1[C@@H]2[C@@H](O)C[C@@]2(C)[C@H]1C[C@H]1CN(c3ccc(CC45CC(N)(C4)C5)cc3)C[C@]12C(=O)CO [INX-SM-34, (6aR,6bS,7S,8aS,8bS,11aR,12aS,12bS)-10-(4-((3-aminobicyclo[1.1.1]pentan-1-yl)methyl)phenyl)-7-hydroxy-8b-(2-hydroxyacetyl)-6a,8a-dimethyl-1,6a,6b,7,8,8a,8b,9,10,11,11a,12,12a,12b-tetradecahydronaphtho[2′,1′:4,5]indeno[1,2-c]pyrrol-4 (2H)-one 2,2,2-trifluoroacetate]	weakly inhibit	weakly inhibit	inhibition of IL-1β and IL-6 [2, 3]: weakly inhibit IL-1β and IL-6

Source: patent US20250108119A1, “NOVEL STEROID PAYLOADS, STEROID LINKERS, ADCs CONTAINING AND USE THEREOF” (IMMUNEXT, INC., priority 2021, published 2025)
